# Assay results published in article PMC5986712, “Aminobenzothiazole derivatives stabilize the thermolabile p53 cancer mutant Y220C and show anticancer activity in p53-Y220C cell lines” (European Journal of Medicinal Chemistry, 2018).
# pIC50, pKd: −log10 of the molar value.
# What was measured:
# [1] = tested on: WI38 cells (non-cancerous fibroblast, p53 WT); assay: Cell viability assay, WI38; settings: Homo sapiens, WI-38, 72 h, read-out: IC50 WI38
# Procedure: (§6) All cell lines were cultured as previously described [9]. Cell viability was measured in quadruplicate (technical replicates) using the CellTiter-Fluor or CellTiter-Glo 2.0 cell viability assay kits (Promega, USA) as previously described [9].
# [2] = tested on: NUGC4 cells (wild-type p53); assay: Cell viability assay, NUGC4; assay type: cell-based; settings: Homo sapiens, NUGC-4; 72 h, p53 WT
# Procedure: (§1) We also envisaged that masking the carboxylate of MB710 as a simple ethylamide MB725 might influence cell permeability and uptake of the scaffold.
# (§2) All cell lines were cultured as previously described. Cell viability was measured in quadruplicate (technical replicates) using the CellTiter-Fluor or CellTiter-Glo 2.0 cell viability assay kits (Promega, USA) as previously described.
# [3] = biological target: p53 cancer mutant Y220C; settings: cited from earlier work
# [4] = tested on: BXPC-3 cells (p53-Y220C); assay: Cell viability assay, BXPC3; settings: BXPC-3, 72 h; for pIC50: Homo sapiens, read-out: IC50 BXPC3
# Procedure: as §6
# [5] = tested on: NUGC3 cells (p53-Y220C); assay: Cell viability assay (CellTiter-Fluor / CellTiter-Glo 2.0), NUGC3; assay type: cell-based, human; settings: for pIC50: Homo sapiens, NUGC-3, 72 h, Y220C cell line
# Procedure: as §1, §2
# [6] = biological target: T1, 15N-labeled T-p53C-Y220C (Homo sapiens, UniProt P04637, M133L/N239Y/N268D/V203A/Y220C); assay: 1H/15N-HSQC NMR titration; assay type: binding; settings: average of at least three fits of shifted peaks
# T1 construct: Stabilized p53-Y220C DBD (residues 94–312) was expressed and purified; 6xHis / lipoyl domain / TEV protease cleavage site (N, cleaved yes); made in house; host or cells: E. coli C41
# Description: Compound stock solutions were mixed with protein immediately before the NMR measurement.
# [7] = biological target: T2, stabilized p53-Y220C DBD (residues 94–312) (Homo sapiens, UniProt P04637, M133L/N239Y/N268D/V203A/Y220C); assay: Differential scanning fluorimetry (DSF), thermal stabilization of Y220C; assay type: binding; settings: 8 μM protein, 10 × SYPRO Orange, 250 μM ligand
# T2 construct: Stabilized p53-Y220C DBD (residues 94–312) was expressed and purified; 6xHis / lipoyl domain / TEV protease cleavage site (N, cleaved yes); made in house; host or cells: E. coli C41
# Procedure: DSF was performed as described. […] All samples were measured in triplicate.
# [8] = tested on: HUH-7 cells (p53-Y220C); assay: Cell viability assay, HUH7; assay type: cell-based, human
# Procedure: as §1, §2
# [9] = tested on: p53 target genes in HUH-7 and HUH-7 p53-Y220C KO cells; assay: Real-time PCR of p53 target genes, HUH-7 versus HUH-7 p53-Y220C KO; assay type: cell-based, human; settings: 18 h
# Description: (§3) To confirm that MB725 mediated anticancer effects are dependent on p53-Y220C, we additionally tested the compound in HUH-7 and an in-house CRISPR generated isogenic p53-Y220C knock-out (KO) HUH-7 cell line (Fig. 8). This new cell line contains a frameshift mutation at codon 124 on one allele and deletion of amino acids 125–223 on the other allele, leading to functional inactivation of the p53 DNA-binding domain (aa 92–292). MB725 decreased cell viability by ca. 30–40% more potently in HUH-7 than in the isogenic HUH-7 p53-Y220C KO (Fig. 8, upper panel).
# (§4) Fig. 8 Assessment of p53-Y220C dependent effect of MB725. Treatment of HUH-7 (p53-Y220C) and HUH-7 p53-Y220C KO cell lines with MB725 for 72 h underscores the enhanced cytotoxicity of MB725 in the presence of p53-Y220C (left panel). […] Cell viability was measured in quadruplicate and normalized against the values of blank (viability = 1) and no cell (viability = 0) controls (left panel). Data are shown as mean ± SEM (Unpaired t-test to test for significance in HUH7 and HUH7 p53 KO viability reduction; *p < 0.05; **p < 0.01; ***p < 0.001). Relative mRNA fold-change was measured in triplicate and normalized against untreated sample according to the ΔΔCt method. […]
# Real-time PCR experiments were performed as described. […] The ΔΔCt method was used to quantify relative mRNA levels. Each sample was measured in triplicate.
# [10] = Cell viability in other cell lines (lacking Y220C); assay type: cell-based; settings: human, at concentrations below 40 μM
# Description: We expected our compounds to show a strong cell viability reduction in cancer cell lines containing the Y220C mutation (NUGC3, HUH-7, BXPC-3), while showing relatively low or no effect on cell lines lacking this mutation (all others). We also envisaged that masking the carboxylate of MB710 as a simple ethylamide MB725 might influence cell permeability and uptake of the scaffold. […] In particular, NUGC3 was the most sensitive cell line.
# Fig. 6 Effects of Y220C binders on cancer cell viability. Relative cell viability (Y-axis) of representative cell lines after 72 h treatment with increasing concentrations (X-axis, μM) of 60 (A), MB710 (B), MB725 (C), and previously reported lead compounds PK083 (D), PK7088 (E) and PK5196 (F). The cell line employed in each experiment and their respective p53 status are shown. […] Cell viability was measured in quadruplicate and normalized against the values of blank (viability = 1) and no cell (viability = 0) controls. Data are shown as mean ± SEM.
# (§5) WI-38 and BXPC-3 (p53-Y220C) cell lines were purchased from ATCC and HUH-7 (p53-Y220C+/+), HUH-6 (wild-type p53+/+). […] Cell viability was measured in quadruplicate (technical replicates) using the CellTiter-Fluor or CellTiter-Glo 2.0 cell viability assay kits (Promega, USA) as previously described. […]
# [11] = tested on: SW1088 cells (p53-R273C); assay: Cell viability assay, SW1088; settings: Homo sapiens, SW1088, 72 h, read-out: IC50 SW1088
# Procedure: as §6
# [12] = tested on: HUH-7 and HUH-7 p53-Y220C KO cells; assay: Cell viability, HUH-7 versus isogenic HUH-7 p53-Y220C KO; assay type: cell-based, human; settings: 72 h
# Description: as §3
# as §4, with “Data are shown as mean ± SEM (Unpaired t-test to test for significance in HUH7 and HUH7 p53 KO viability reduction; *p < 0.05; **p < 0.01; ***p < 0.001).” left out
# as §5
# [13] = Solubility (qualitative observation); assay type: physicochemical
pIC50 [4],"pIC50 ([8]; Homo sapiens, Huh-7, 72 h, Y220C cell line)",pIC50 [11],solubility (in words) [13],SMILES,pIC50 [1],pIC50 [2],pKd [3],pIC50 [5],pKd [6],ΔTm at 250 µM [7] [°C],"cell viability ([8]; HUH-7, 72 h, at concentrations below 40 μM) [%]","increase of mRNA levels of p53 target genes (PUMA (BBC3), p21, MDM2, NOXA, BAX) [9]",viability at 72 h [10] [%],cell viability ([4]; at concentrations below 40 μM) [%],cell viability decreased more potently in HUH-7 than in isogenic HUH-7 p53-Y220C KO [12],"concentration at which an almost maximum effect was achieved ([5]; NUGC3, 72 h)","cell viability ([5]; NUGC3, 72 h, at concentrations below 40 μM) [%]"
4.37,–,–,–,CCn1c2ccccc2c2cc(CNC)ccc21 [Compound 1],4.66,5.05,3.85,4.85,–,–,–,–,–,–,–,–,–
–,–,–,–,"CCCCOc1cc(C(=O)O)c(O)c(I)c1-n1cccc1 [Compound 52, 5-butoxy-2-hydroxy-3-iodo-4-(1H-pyrrol-1-yl)benzoic acid]",–,–,–,–,4.52,1.4,–,–,–,–,–,–,–
4.74,5.00,< 3.92,reduced solubility,"CCNC(=O)c1c(O)c(I)c(-n2cccc2)c2sc(N(CC)CC)nc12 [Compound 72, 2-(diethylamino)-N-ethyl-5-hydroxy-6-iodo-7-(1H-pyrrol-1-yl)benzo[d]thiazole-4-carboxamide]",< 3.92,< 3.92,–,5.00,–,–,30,more efficiently in HUH-7 than in HUH-7 p53-Y220C KO,> 80,30,30–40%,below 10 μM,10
